Where a name gives a salt, the structure may show the parent alone.
Key:
activated human C1 = molecular target: T1, activated human C1 (Homo sapiens, UniProt P09871); assay: Test Code 026 (C1-inhibitor); assay type: biochemical; details: serial twofold dilution assay; higher well number indicates higher activity
T1 construct: cleavage of fluid-phase human C2 in presence of C4
Description: (§1) An active inhibitor protects C2 from C1 and C4; (ii) Test Code 035 (C3-C9 inhibitor)--This test determines the ability of the late components of human complement (C3-C9) to lyse EAC 142 in the presence of appropriate dilutions of the test compound. An active inhibitor protects EAC 142 from lysis by human C3-C9; (iii) Test Code 036 (C-Shunt inhibitor)--In this test human erythrocytes rendered fragile are lysed in autologous serum via the shunt pathway activated by cobra venom factor in the presence of appropriate dilutions of the test compound. Inhibition of the shunt pathway results in failure of lysis; (iv) Forssman Vasculitis Test--Here, the well known complement dependent lesion, Forssman vasculitis, is produced in guinea pigs by intradermal injection of rabbit anti-Forssman antiserum. The lesion is measured in terms of diameter, edema and hemorrhage and the extent to which a combined index of these is inhibited by prior intraperitoneal injection of the test compound at 200 mg/kg is then reported, unless otherwise stated; (v) Forssman Shock Test--Lethal shock is produced in guinea pigs by an i.v. injection of anti-Forssman antiserum and the harmonic mean death time of treated guinea pigs is compared with that of simultaneous controls; (vi) Complement Level Reduction Test--In this test, the above dosed guinea pigs, or others, are bled for serum and the complement level is determined in undiluted serum by the capillary tube method of U.S. Pat. No. 3,876,376 and compared to undosed control guinea pigs; and (vii) Cap 50 Test--Here, appropriate amounts of the test compound are added to a pool of guinea pig serum in vitro, after which the undiluted serum capillary tube assay referred to above is run. The concentration of compound inhibiting 50% is reported.

[1] = tested on: shunt pathway activated by cobra venom factor; assay: Test Code 036 (C-Shunt inhibitor), lysis of human erythrocytes in autologous serum, cobra venom factor; assay type: cell-based; details: serial twofold dilution assay; higher well number indicates higher activity
Description: as §1

[2] = tested on: late components of human complement (C3-C9); assay: Test Code 035 (C3-C9 inhibitor), lysis of EAC 142; assay type: biochemical; details: serial twofold dilution assay; higher well number indicates higher activity
Description: as §1

complement system = details: known from the literature; cited from earlier work

T1 sequence (P09871 16-688): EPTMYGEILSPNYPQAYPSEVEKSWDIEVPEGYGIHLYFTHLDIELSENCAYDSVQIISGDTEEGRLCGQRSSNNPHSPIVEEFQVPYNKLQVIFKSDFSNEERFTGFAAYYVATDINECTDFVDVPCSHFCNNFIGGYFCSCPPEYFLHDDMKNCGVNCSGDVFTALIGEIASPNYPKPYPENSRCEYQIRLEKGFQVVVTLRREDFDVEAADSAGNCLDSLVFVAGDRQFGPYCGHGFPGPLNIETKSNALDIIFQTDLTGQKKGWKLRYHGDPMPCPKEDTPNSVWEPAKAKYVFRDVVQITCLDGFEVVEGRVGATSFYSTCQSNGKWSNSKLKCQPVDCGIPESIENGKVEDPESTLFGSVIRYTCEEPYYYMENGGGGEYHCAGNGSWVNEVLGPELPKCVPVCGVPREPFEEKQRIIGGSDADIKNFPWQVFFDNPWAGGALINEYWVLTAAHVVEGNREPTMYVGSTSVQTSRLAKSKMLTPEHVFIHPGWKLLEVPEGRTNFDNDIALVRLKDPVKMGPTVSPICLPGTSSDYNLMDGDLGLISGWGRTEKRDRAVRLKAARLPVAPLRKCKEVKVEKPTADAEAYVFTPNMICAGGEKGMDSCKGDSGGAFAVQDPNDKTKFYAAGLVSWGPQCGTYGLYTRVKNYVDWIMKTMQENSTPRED
T1 sequence (P00736 18-705 partner): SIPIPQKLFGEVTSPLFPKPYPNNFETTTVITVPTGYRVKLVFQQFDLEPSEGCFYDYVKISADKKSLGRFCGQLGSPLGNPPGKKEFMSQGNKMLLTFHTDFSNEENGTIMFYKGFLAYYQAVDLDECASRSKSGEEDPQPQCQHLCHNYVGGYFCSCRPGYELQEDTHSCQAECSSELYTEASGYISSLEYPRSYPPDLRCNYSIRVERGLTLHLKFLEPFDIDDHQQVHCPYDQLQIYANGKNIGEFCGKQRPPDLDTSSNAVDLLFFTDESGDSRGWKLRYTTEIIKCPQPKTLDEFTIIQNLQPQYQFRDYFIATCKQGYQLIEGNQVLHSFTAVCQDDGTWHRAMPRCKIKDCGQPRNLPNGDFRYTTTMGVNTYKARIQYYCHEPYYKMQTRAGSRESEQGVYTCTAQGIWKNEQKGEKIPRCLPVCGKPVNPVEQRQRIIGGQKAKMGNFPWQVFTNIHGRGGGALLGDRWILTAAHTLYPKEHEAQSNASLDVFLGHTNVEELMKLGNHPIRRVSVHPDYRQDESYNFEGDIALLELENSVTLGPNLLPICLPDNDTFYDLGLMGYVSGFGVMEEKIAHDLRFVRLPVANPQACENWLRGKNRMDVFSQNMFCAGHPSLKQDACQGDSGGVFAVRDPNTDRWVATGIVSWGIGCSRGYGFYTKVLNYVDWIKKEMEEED
T1 sequence (P02745 23-245 partner): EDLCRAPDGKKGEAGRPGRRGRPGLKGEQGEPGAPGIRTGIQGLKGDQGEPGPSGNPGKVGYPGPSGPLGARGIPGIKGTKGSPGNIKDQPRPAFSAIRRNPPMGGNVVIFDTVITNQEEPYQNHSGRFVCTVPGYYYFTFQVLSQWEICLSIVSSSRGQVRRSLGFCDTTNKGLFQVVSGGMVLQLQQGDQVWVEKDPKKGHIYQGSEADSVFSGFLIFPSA
T1 sequence (P02746 28-253 partner): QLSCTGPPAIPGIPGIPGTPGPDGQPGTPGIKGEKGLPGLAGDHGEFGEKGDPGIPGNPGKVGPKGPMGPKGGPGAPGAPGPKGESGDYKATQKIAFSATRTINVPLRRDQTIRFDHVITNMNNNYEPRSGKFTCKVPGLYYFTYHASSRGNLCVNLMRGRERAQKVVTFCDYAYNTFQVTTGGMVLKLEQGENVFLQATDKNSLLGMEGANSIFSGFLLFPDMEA
T1 sequence (P02747 29-245 partner): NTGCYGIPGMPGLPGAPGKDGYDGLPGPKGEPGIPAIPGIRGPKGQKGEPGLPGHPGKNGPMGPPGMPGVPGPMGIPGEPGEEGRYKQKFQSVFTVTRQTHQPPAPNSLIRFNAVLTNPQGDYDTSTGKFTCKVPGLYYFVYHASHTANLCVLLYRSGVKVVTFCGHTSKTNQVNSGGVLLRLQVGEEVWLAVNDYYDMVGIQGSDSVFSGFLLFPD

SMILES	Cl 026* Wells (activated human C1)	Shunt Inhibition 036* Wells [1]	C-Late 035* Wells [2]	activity as a complement inhibitor (complement system)
Cc1ccc(S(=O)(=O)Nc2ccc(S(=O)(=O)O)c3cc(S(=O)(=O)O)cc(S(=O)(=O)O)c23)cc1NS(=O)(=O)c1cccc(NC(=O)Nc2cccc(S(=O)(=O)Nc3cc(S(=O)(=O)Nc4ccc(S(=O)(=O)O)c5cc(S(=O)(=O)O)cc(S(=O)(=O)O)c45)ccc3C)c2)c1 [8,8'-[Ureylenebis[(m-phenylenesulfonylimino) (4-methyl-3,1-phenylenesulfonyl)imino]]di-1,3,5-naphthalenetrisulfonic acid, hexasodium salt]	+3 Wells	N	+1 Wells	–
O=C(Nc1cccc(S(=O)(=O)Nc2cccc(S(=O)(=O)Nc3cc(S(=O)(=O)O)cc4cc(S(=O)(=O)O)cc(S(=O)(=O)O)c34)c2)c1)Nc1cccc(S(=O)(=O)Nc2cccc(S(=O)(=O)Nc3cc(S(=O)(=O)O)cc4cc(S(=O)(=O)O)cc(S(=O)(=O)O)c34)c2)c1 [8,8'-[Ureylenebis[[(1,3-phenylenesulfonylimino)-1,3-phenylenesulfonyl]imino]]di-1,3,6-naphthalenetrisulfonic acid, hexasodium salt]	+4 Wells	+1 Wells	+5 Wells	–
Cc1ccc(NC(=O)Nc2ccc(C)c(S(=O)(=O)Nc3ccc(C)c(S(=O)(=O)Nc4cc(S(=O)(=O)[O-])cc5cc(S(=O)(=O)[O-])cc(S(=O)(=O)[O-])c45)c3)c2)cc1S(=O)(=O)Nc1ccc(C)c(S(=O)(=O)Nc2cc(S(=O)(=O)[O-])cc3cc(S(=O)(=O)[O-])cc(S(=O)(=O)[O-])c23)c1.[Na+].[Na+].[Na+].[Na+].[Na+].[Na+] [8,8'-[Ureylenebis[[[(6-methyl-3,1-phenylene)sulfonyl]imino]-[[(6-methyl-3,1-phenylene)sulfonyl]imino]]]di-1,3,6-naphthalenetrisulfonic acid, hexasodium salt]	+3 Wells	N	+1 Wells	–
Cc1ccc(C(=O)Nc2ccc(S(=O)(=O)O)c3cc(S(=O)(=O)O)cc(S(=O)(=O)O)c23)cc1NC(=O)c1cccc(NC(=O)Nc2cccc(C(=O)Nc3cc(C(=O)Nc4ccc(S(=O)(=O)O)c5cc(S(=O)(=O)O)cc(S(=O)(=O)O)c45)ccc3C)c2)c1 [Suramin, reference compound]	+4 Wells	–	+2 Wells	moderately active
